One series is described as follows: Alamar blue assay. Format: cell-based. The conditions noted are these: human, PC-3 cells, PC-3, 3 µM. As for the experimental part:
Alamar blue works as a non-toxic and membrane-permeable redox indicator that is often used to assess the metabolic activity of cells. Over the past 50 years, the alamar blue reagent has been used to measure cell viability and cytotoxicity in a variety of cell types. In this study, alamar blue (BioRAD) was used to assess cell viability before the performance of the neutral comet assay. Nunc microtiter, flat-bottomed 96-well plates were seeded at a density of approximately 1 × 10^4 cells per 100 µL medium per well. Following the given incubation period in controlled conditions (37 °C; 5% CO2), cells were exposed to 11 different concentrations of tested compounds in DMSO (range 0.05–3 µM) in a volume of 100 µL medium per well. The final solvent concentration was <0.5% v/v. The experimental design included negative controls and blanks (wells without cells).
Following a 24 h incubation period, 20 µL of alamar blue was added to each well of the experimental plate. Cells were incubated in a humidified atmosphere for 4 h (37 °C; 5% CO2). The absorbance reading was performed at 570 and 600 nm using a spectrophotometer (microplate reader Power Wave XS BioTek Instruments, Inc., USA). The experiments were performed in triplicate.
The percentage difference between treated and control cells was calculated using the formula provided by the producer (BioRad). (1) Percentage difference between treated and control cells=O2×A1 −O1×A2 /O2×P1−O1×P2×100
In general terms: The colour change of resazurin is a common sign of viable cells or microbes.

A further series relates to BxPC-3. The experiment in a line: Neutral comet assay. Format: cell-based, human. The note with it: human, 24 h. How it is done:
The majority of the neutral comet assay steps were performed analogously to the alkaline version except for the electrophoresis step. In contrast to the alkaline comet assay, electrophoresis was performed in a buffer comprising 100 mM TRIS and 300 mM sodium acetate with the pH of the solution adjusted to 9.0 by glacial acetic acid, as described previously by Bukowski et al.. Electrophoresis was run at 12 V, 50 mA for 60 min. Cells were washed with distilled water twice, stained with DAPI, and analyzed as described for the alkaline comet assay.
CASP: Comet Assay Software Project Lab (http://casplab.com (accessed on 1 January 2023)) was used to establish the median value of DNA (%) in comet tails. This parameter provides a very clear picture of what the actual appearance of the comets was like. […] The data were presented with an interquartile range and minimal and maximal values using Graphpad Prism 7. Statistical analysis of comet assay results was performed using Statistica software. The Kruskal–Wallis test was used to show a statistically significant difference between groups. Multiple comparisons using mean ranks for all groups module of Statistica software were used. A p-value less than 0.05 was considered statistically significant. In all groups, N > 200.

For a further series, the system named is PC-3. On the set-up: method as in PMID 35682571. The note with it: PC-3, 72 h incubation, MTT assay, mean; read-out: IC50 Value ± SD; cited from earlier work.

The structures appear in SMILES notation.

A word on the viability: it is a per cent measure of how many cells are alive, often set against a control. In general, IC50 refers to the concentration that inhibits the measured activity by half. In the case of `Cc1nn(-c2ccc(S(=O)(=O)NCCN3CCOCC3)cc2)c2nn3nnnc3nc12` [MM134], in the series “Alamar blue assay”, the viability at 24 h, 3 µM is 55.8 ± 5.27%. For the same compound, in the series with BxPC-3, the “mean tail DNA % (double-strand breaks)” value came to 5.11% and the “median tail DNA % (double-strand breaks)” value is given as 4.21%. In the series with PC-3, the IC50 was 160 ± 20 nM.

The values above are taken from article PMC9966268, “Genotoxicity of Novel Pyrazolo[4,3-e]tetrazolo[1,5-b][1,2,4]triazine Sulfonamides in Normal and Cancer Cells In Vitro” (International Journal of Molecular Sciences, 2023).
